Data reported in the NIST ThermoML archive (doi:10.1016/j.jct.2008.05.014).
± gives the expanded uncertainty stated by the source.

Assay: xn = mol fraction of the nth substance listed
Details: Liquid; for speed of sound: Pulse-echo method

CCCCCCCCCCCC [dodecane] + CCCCCCC
Details | mass density [kg/m3] | speed of sound [m/s]
313.11 K, 75990 kPa, x2 = 0.1014 | – | 1575.8 ± 2.5
313.11 K, 75990 kPa, x2 = 0.3007 | – | 1560.1 ± 2.5
313.11 K, 75990 kPa, x2 = 0.5003 | – | 1544.4 ± 2.5
313.11 K, 75990 kPa, x2 = 0.7007 | – | 1524.1 ± 2.5
313.11 K, 91180 kPa, x2 = 0.1014 | – | 1630.7 ± 2.5
313.11 K, 91180 kPa, x2 = 0.3007 | – | 1616.4 ± 2.6
313.11 K, 91180 kPa, x2 = 0.5003 | – | 1601.4 ± 2.6
313.11 K, 101320 kPa, x2 = 0.3007 | – | 1651.1 ± 2.6
313.11 K, 101320 kPa, x2 = 0.5003 | – | 1637 ± 2.6
313.11 K, 101320 kPa, x2 = 0.7007 | – | 1618.5 ± 2.6
313.12 K, 101 kPa, x2 = 0.8 | – | 1108.9 ± 1.6
313.12 K, 15200 kPa, x2 = 0.5003 | – | 1261.2 ± 2.4
313.12 K, 30390 kPa, x2 = 0.8496 | – | 1297.9 ± 2.4
313.12 K, 45590 kPa, x2 = 0.3007 | – | 1435.5 ± 2.4
313.12 K, 45590 kPa, x2 = 0.8496 | – | 1375.3 ± 2.4
313.12 K, 60790 kPa, x2 = 0.3007 | – | 1500.5 ± 2.5
313.12 K, 60790 kPa, x2 = 0.8496 | – | 1444.9 ± 2.5
313.12 K, 75990 kPa, x2 = 0.8496 | – | 1508.4 ± 2.5
313.12 K, 91180 kPa, x2 = 0.8496 | – | 1566.8 ± 2.6
313.12 K, 101320 kPa, x2 = 0.8496 | – | 1604 ± 2.6
313.13 K, 101 kPa, x2 = 0.2001 | – | 1199.7 ± 1.6
313.13 K, 101 kPa, x2 = 0.5002 | – | 1159.9 ± 1.6
313.13 K, 15200 kPa, x2 = 0.8496 | – | 1209.3 ± 2.4
313.14 K, 101 kPa, x2 = 0.1007 | – | 1210.7 ± 1.6
313.15 K, 101 kPa, x2 = 0 | 734.369 ± 0.65 | –
313.15 K, 101 kPa, x2 = 0.0991 | 730.129 ± 0.65 | –
313.15 K, 101 kPa, x2 = 0.2008 | 725.372 ± 0.66 | –
313.15 K, 101 kPa, x2 = 0.2998 | 720.306 ± 0.67 | –
313.15 K, 101 kPa, x2 = 0.3996 | 714.763 ± 0.67 | –
313.15 K, 101 kPa, x2 = 0.5 | 708.645 ± 0.68 | –
313.15 K, 101 kPa, x2 = 0.6 | 701.955 ± 0.69 | –
313.15 K, 101 kPa, x2 = 0.7005 | 694.545 ± 0.7 | –
313.15 K, 101 kPa, x2 = 0.7995 | 686.378 ± 0.71 | –
313.15 K, 101 kPa, x2 = 0.8486 | 682.014 ± 0.71 | –
313.15 K, 101 kPa, x2 = 0.8988 | 677.238 ± 0.72 | –
313.15 K, 101 kPa, x2 = 0.9498 | 672.083 ± 0.73 | –
313.21 K, 15200 kPa, x2 = 0 | – | 1313.4 ± 2.4
313.21 K, 30390 kPa, x2 = 0 | – | 1391.1 ± 2.4
313.21 K, 45590 kPa, x2 = 0 | – | 1460.8 ± 2.4
313.21 K, 60790 kPa, x2 = 0 | – | 1524.1 ± 2.5
313.21 K, 75990 kPa, x2 = 0 | – | 1582.5 ± 2.5
313.21 K, 91180 kPa, x2 = 0 | – | 1637.3 ± 2.5
313.21 K, 101320 kPa, x2 = 0 | – | 1671.3 ± 2.6
318.15 K, 101 kPa, x2 = 0 | 730.715 ± 0.65 | –
318.15 K, 101 kPa, x2 = 0.0991 | 726.449 ± 0.66 | –
318.15 K, 101 kPa, x2 = 0.2008 | 721.654 ± 0.66 | –
318.15 K, 101 kPa, x2 = 0.2998 | 716.534 ± 0.67 | –
318.15 K, 101 kPa, x2 = 0.3996 | 710.938 ± 0.68 | –
318.15 K, 101 kPa, x2 = 0.5 | 704.756 ± 0.69 | –
318.15 K, 101 kPa, x2 = 0.6 | 698 ± 0.69 | –
318.15 K, 101 kPa, x2 = 0.7005 | 690.511 ± 0.7 | –
318.15 K, 101 kPa, x2 = 0.7995 | 682.231 ± 0.71 | –
318.15 K, 101 kPa, x2 = 0.8486 | 677.842 ± 0.72 | –
318.15 K, 101 kPa, x2 = 0.8988 | 673.004 ± 0.73 | –
318.15 K, 101 kPa, x2 = 0.9498 | 667.78 ± 0.73 | –
318.17 K, 30390 kPa, x2 = 0.9391 | – | 1264.9 ± 2.4
318.17 K, 60790 kPa, x2 = 0.9391 | – | 1416.7 ± 2.5
318.17 K, 75990 kPa, x2 = 0.9391 | – | 1481.5 ± 2.5
318.17 K, 91180 kPa, x2 = 0.9391 | – | 1540.9 ± 2.6
318.17 K, 101320 kPa, x2 = 0.9391 | – | 1578.8 ± 2.6
318.18 K, 15200 kPa, x2 = 0.9391 | – | 1172.9 ± 2.4
318.18 K, 30390 kPa, x2 = 0.4999 | – | 1327.8 ± 2.4
318.18 K, 45590 kPa, x2 = 0.4999 | – | 1402.2 ± 2.4
318.18 K, 45590 kPa, x2 = 0.9391 | – | 1345 ± 2.4
318.18 K, 60790 kPa, x2 = 0.4999 | – | 1469.5 ± 2.5
318.18 K, 75990 kPa, x2 = 0.4999 | – | 1530.5 ± 2.5
318.18 K, 75990 kPa, x2 = 0.97 | – | 1479.1 ± 2.5
318.18 K, 91180 kPa, x2 = 0.4999 | – | 1587.8 ± 2.6
318.18 K, 101320 kPa, x2 = 0.4999 | – | 1623.8 ± 3
318.19 K, 15200 kPa, x2 = 0.4999 | – | 1243.6 ± 3.7
318.19 K, 15200 kPa, x2 = 0.97 | – | 1168.4 ± 2.4
318.19 K, 30390 kPa, x2 = 0.97 | – | 1261.1 ± 2.4
318.19 K, 45590 kPa, x2 = 0.8496 | – | 1359.9 ± 2.4
318.19 K, 45590 kPa, x2 = 0.97 | – | 1341.7 ± 2.4
318.19 K, 60790 kPa, x2 = 0.97 | – | 1413.8 ± 2.5
318.19 K, 91180 kPa, x2 = 0.97 | – | 1538.7 ± 2.6
318.19 K, 101320 kPa, x2 = 0.1014 | – | 1652.2 ± 2.6
318.19 K, 101320 kPa, x2 = 0.97 | – | 1576.7 ± 2.6
318.2 K, 15200 kPa, x2 = 0.1014 | – | 1286.7 ± 2.4
318.2 K, 15200 kPa, x2 = 0.8496 | – | 1191.3 ± 2.4
318.2 K, 30390 kPa, x2 = 0.1014 | – | 1366.6 ± 2.4
318.2 K, 30390 kPa, x2 = 0.8496 | – | 1281.3 ± 2.4
318.2 K, 45590 kPa, x2 = 0.1014 | – | 1437.8 ± 2.4
318.2 K, 60790 kPa, x2 = 0.1014 | – | 1502.5 ± 2.5
318.2 K, 60790 kPa, x2 = 0.8496 | – | 1430.4 ± 2.5
318.2 K, 75990 kPa, x2 = 0.8496 | – | 1494.5 ± 2.5
318.2 K, 76190 kPa, x2 = 0.1014 | – | 1562.6 ± 2.5
318.2 K, 91180 kPa, x2 = 0.1014 | – | 1617.7 ± 2.6
318.2 K, 91180 kPa, x2 = 0.8496 | – | 1553.3 ± 2.6
318.2 K, 101320 kPa, x2 = 0.8496 | – | 1590.8 ± 2.6
318.28 K, 101320 kPa, x2 = 0.5003 | – | 1623.8 ± 3
318.29 K, 15200 kPa, x2 = 0 | – | 1296.2 ± 2.4
318.29 K, 15200 kPa, x2 = 0.3007 | – | 1265.2 ± 2.4
318.29 K, 15200 kPa, x2 = 0.5003 | – | 1243.2 ± 3.7
318.29 K, 30390 kPa, x2 = 0 | – | 1375 ± 2.4
318.29 K, 30390 kPa, x2 = 0.5003 | – | 1327.5 ± 3.8
318.29 K, 45590 kPa, x2 = 0 | – | 1445.5 ± 2.4
318.29 K, 45590 kPa, x2 = 0.3007 | – | 1420.2 ± 2.4
318.29 K, 45590 kPa, x2 = 0.5003 | – | 1401.9 ± 3.5
318.29 K, 60790 kPa, x2 = 0 | – | 1509.7 ± 2.5
318.29 K, 60790 kPa, x2 = 0.3007 | – | 1486 ± 2.5
318.29 K, 60790 kPa, x2 = 0.5003 | – | 1469.1 ± 3.3
318.29 K, 75990 kPa, x2 = 0.3007 | – | 1546.1 ± 2.5
318.29 K, 75990 kPa, x2 = 0.5003 | – | 1530.4 ± 3
318.29 K, 91180 kPa, x2 = 0 | – | 1624.1 ± 2.6
318.29 K, 91180 kPa, x2 = 0.3007 | – | 1602.7 ± 2.6
318.29 K, 91180 kPa, x2 = 0.5003 | – | 1587.6 ± 3
318.29 K, 101320 kPa, x2 = 0 | – | 1658.5 ± 2.6
318.29 K, 101320 kPa, x2 = 0.3007 | – | 1638.2 ± 2.6
318.3 K, 30390 kPa, x2 = 0.3007 | – | 1347.3 ± 2.4
318.3 K, 75990 kPa, x2 = 0 | – | 1568.8 ± 2.5
318.3 K, 75990 kPa, x2 = 0.7007 | – | 1510 ± 2.5
318.3 K, 101320 kPa, x2 = 0.7007 | – | 1605 ± 2.6
318.31 K, 15200 kPa, x2 = 0.7007 | – | 1213.9 ± 2.4
318.31 K, 30390 kPa, x2 = 0.7007 | – | 1301.3 ± 2.4
318.31 K, 45590 kPa, x2 = 0.7007 | – | 1378 ± 2.4
318.31 K, 60790 kPa, x2 = 0.7007 | – | 1447.1 ± 2.5
318.31 K, 91180 kPa, x2 = 0.7007 | – | 1568.1 ± 2.6
318.37 K, 101 kPa, x2 = 0.6 | – | 1123.2 ± 1.6
318.38 K, 101 kPa, x2 = 0.7002 | – | 1105.9 ± 1.6
318.38 K, 101 kPa, x2 = 0.8995 | – | 1066.3 ± 1.6
318.39 K, 101 kPa, x2 = 0 | – | 1200.9 ± 1.6
318.39 K, 101 kPa, x2 = 0.3002 | – | 1167 ± 1.6
318.39 K, 101 kPa, x2 = 0.3996 | – | 1153.6 ± 1.6
318.4 K, 101 kPa, x2 = 0.1007 | – | 1190.5 ± 1.6
318.4 K, 101 kPa, x2 = 0.8 | – | 1087 ± 1.6
318.41 K, 101 kPa, x2 = 0.2001 | – | 1179.3 ± 1.6
318.41 K, 101 kPa, x2 = 0.5002 | – | 1138.9 ± 1.6
